According to the kinase profiling compilation of Christmann-Franck et al. (2016):
One block for each compound: values may come before it.

Legend:
Assay in all cases: radiometric filter-binding kinase assay, Kinase HotSpot
Details in all cases: compound 0.5 µM; ATP 10 µM
[1] = molecular target: FLT1 (human) (UniProt P17948)
[2] = molecular target: DYRK2 (human) (UniProt Q92630)
[3] = molecular target: ROCK1 (human) (UniProt Q13464)
[4] = molecular target: BMX (human) (UniProt P51813)
[5] = molecular target: MAP3K10 (human) (UniProt Q02779)
[6] = molecular target: DDR2 (human) (UniProt Q16832)
[7] = molecular target: EPHA7 (human) (UniProt Q15375)
[8] = molecular target: AURKC (human) (UniProt Q9UQB9)
[9] = molecular target: ZAP70 (human) (UniProt P43403)
Chain of ZAP70 (human) (P43403 whole entry, looked up): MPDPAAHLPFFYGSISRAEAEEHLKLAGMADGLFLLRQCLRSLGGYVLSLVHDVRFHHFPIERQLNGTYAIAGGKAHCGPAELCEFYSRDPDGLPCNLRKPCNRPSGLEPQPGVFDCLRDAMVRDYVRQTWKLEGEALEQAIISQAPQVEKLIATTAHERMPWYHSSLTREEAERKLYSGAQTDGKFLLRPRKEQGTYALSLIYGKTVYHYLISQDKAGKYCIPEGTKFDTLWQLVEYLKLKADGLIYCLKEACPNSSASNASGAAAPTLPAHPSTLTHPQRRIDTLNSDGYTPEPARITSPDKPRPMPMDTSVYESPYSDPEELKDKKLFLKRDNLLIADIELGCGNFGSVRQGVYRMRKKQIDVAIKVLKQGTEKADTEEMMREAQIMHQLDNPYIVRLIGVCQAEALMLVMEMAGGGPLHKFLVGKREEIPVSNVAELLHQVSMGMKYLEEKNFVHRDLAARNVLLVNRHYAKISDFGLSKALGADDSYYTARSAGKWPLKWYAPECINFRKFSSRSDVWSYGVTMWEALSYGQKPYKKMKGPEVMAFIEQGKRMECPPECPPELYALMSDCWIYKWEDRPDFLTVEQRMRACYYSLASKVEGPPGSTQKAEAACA

[10] = molecular target: ULK3 (human) (UniProt Q6PHR2)
[11] = molecular target: DAPK1 (human) (UniProt P53355)
[12] = molecular target: HIPK4 (human) (UniProt Q8NE63)
Chain of HIPK4 (human) (Q8NE63 whole entry, looked up): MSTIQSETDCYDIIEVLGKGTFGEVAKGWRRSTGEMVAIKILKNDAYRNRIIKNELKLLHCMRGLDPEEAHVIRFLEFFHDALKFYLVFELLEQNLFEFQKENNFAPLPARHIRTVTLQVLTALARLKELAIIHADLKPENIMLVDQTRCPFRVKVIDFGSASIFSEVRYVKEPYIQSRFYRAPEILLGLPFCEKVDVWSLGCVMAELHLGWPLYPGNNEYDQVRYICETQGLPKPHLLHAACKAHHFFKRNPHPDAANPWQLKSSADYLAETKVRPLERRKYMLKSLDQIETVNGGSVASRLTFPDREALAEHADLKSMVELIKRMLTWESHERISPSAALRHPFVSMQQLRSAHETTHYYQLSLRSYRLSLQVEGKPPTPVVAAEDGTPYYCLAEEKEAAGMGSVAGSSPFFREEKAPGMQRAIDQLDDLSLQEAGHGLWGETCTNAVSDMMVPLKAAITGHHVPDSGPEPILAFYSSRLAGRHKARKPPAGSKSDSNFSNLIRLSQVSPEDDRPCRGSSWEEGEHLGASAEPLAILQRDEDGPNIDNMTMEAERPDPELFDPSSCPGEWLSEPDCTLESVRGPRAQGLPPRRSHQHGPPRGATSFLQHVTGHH

[13] = molecular target: PRKCB1 (human) (UniProt P05771)
[14] = molecular target: GSK3B (human) (UniProt P49841)
[15] = molecular target: MYLK2 (human) (UniProt Q9H1R3)
[16] = molecular target: CAMK1 (human) (UniProt Q14012)
[17] = molecular target: CSNK2A2 (human) (UniProt P19784)
[18] = molecular target: PLK3 (human) (UniProt Q9H4B4)
Chain of PLK3 (human) (Q9H4B4 whole entry, looked up): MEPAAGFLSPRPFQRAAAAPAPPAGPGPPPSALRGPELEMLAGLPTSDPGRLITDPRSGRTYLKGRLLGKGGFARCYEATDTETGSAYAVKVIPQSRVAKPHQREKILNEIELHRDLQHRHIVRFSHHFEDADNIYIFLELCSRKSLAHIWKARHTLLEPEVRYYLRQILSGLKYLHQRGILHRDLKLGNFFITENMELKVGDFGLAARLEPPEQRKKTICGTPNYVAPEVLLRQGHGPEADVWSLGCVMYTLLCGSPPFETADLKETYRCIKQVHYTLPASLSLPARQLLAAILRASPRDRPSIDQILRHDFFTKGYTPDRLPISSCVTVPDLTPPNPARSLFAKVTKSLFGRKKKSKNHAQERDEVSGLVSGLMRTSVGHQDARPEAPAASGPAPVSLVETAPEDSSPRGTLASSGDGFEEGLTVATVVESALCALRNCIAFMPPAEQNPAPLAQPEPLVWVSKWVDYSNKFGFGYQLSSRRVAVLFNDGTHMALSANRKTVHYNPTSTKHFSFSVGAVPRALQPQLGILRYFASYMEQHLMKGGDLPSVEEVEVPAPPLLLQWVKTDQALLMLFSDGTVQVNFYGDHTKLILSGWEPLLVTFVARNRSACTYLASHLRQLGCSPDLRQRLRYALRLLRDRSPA

[19] = molecular target: ACVR1B (human) (UniProt P36896)
[20] = molecular target: FYN (human) (UniProt P06241)
[21] = molecular target: YES1 (human) (UniProt P07947)
[22] = molecular target: PHKG1 (human) (UniProt Q16816)
[23] = molecular target: PAK4 (human) (UniProt O96013)
Chain of PAK4 (human) (O96013 whole entry, looked up): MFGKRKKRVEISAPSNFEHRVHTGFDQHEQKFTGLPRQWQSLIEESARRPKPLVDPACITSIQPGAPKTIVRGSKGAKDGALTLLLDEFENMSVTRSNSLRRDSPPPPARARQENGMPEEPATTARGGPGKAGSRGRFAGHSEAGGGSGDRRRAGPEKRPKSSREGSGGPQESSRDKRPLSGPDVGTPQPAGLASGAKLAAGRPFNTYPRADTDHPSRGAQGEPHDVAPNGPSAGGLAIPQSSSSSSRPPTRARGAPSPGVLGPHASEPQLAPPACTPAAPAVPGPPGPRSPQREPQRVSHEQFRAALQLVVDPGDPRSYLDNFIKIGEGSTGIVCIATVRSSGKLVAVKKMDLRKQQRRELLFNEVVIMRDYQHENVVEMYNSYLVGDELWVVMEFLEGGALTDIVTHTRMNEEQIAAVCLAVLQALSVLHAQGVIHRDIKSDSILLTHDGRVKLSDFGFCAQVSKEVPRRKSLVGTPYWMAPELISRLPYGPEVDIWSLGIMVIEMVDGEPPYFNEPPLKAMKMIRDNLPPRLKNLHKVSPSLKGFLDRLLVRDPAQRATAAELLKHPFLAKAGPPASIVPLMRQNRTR

[24] = molecular target: GSK3A (human) (UniProt P49840)
[25] = molecular target: STK33 (human) (UniProt Q9BYT3)
[26] = molecular target: BRAF (human) (UniProt P15056)
Chain of BRAF (human) (P15056 whole entry, looked up): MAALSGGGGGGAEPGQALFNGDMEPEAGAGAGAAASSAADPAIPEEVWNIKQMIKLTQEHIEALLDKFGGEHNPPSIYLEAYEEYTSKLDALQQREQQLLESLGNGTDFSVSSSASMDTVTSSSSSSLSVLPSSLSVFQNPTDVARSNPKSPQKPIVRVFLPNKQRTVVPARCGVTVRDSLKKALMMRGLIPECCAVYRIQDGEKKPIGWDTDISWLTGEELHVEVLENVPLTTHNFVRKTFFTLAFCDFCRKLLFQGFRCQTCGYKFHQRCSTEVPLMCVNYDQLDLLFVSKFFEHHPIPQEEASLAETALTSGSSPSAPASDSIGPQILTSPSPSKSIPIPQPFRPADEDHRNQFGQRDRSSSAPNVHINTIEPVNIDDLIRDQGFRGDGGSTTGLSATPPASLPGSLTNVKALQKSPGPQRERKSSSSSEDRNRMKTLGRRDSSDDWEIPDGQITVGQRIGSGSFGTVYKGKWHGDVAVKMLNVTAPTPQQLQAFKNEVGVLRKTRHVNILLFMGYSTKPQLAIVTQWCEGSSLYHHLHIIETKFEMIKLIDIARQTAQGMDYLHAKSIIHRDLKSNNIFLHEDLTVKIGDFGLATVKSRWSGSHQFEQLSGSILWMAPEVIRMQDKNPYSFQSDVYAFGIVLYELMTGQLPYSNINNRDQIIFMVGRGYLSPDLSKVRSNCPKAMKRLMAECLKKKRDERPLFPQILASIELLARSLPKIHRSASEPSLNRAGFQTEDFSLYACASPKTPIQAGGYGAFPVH

[27] = molecular target: MST4 (human) (UniProt Q9P289)
[28] = molecular target: FLT3 (human) (UniProt P36888)
[29] = molecular target: ACVR1 (human) (UniProt Q04771)
[30] = molecular target: MAPKAPK2 (human) (UniProt P49137)
Chain of MAPKAPK2 (human) (P49137 whole entry, looked up): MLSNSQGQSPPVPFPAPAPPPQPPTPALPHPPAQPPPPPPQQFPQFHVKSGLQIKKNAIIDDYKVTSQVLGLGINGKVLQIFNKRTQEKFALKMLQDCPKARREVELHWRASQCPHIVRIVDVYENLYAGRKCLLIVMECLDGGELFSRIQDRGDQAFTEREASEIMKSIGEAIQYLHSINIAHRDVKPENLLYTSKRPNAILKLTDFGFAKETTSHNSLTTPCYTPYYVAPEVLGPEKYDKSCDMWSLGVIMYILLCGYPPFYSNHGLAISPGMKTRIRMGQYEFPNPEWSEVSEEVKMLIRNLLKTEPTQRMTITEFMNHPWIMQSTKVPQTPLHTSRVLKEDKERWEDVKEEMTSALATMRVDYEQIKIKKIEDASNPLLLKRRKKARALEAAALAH

[31] = molecular target: EPHA5 (human) (UniProt P54756)
[32] = molecular target: LRRK2 (human) (UniProt Q5S007)
[33] = molecular target: MAP3K3 (human) (UniProt Q99759)
Chain of MAP3K3 (human) (Q99759 whole entry, looked up): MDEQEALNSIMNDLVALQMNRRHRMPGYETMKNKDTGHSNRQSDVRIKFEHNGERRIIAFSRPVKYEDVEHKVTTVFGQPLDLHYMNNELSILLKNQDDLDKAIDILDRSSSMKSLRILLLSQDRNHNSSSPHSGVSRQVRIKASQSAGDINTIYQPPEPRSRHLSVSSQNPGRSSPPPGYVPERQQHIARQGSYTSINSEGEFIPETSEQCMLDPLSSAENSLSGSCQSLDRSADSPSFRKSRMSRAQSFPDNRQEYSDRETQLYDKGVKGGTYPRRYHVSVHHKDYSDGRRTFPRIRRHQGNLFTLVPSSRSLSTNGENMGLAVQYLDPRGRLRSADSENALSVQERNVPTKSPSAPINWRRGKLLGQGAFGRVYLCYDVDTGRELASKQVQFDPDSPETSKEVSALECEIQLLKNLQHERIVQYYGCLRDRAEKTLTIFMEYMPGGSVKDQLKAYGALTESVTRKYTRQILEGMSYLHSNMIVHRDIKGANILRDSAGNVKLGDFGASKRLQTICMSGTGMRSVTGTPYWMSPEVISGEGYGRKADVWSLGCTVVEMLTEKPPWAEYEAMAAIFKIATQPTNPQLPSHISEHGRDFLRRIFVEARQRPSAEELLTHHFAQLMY

[34] = molecular target: IKBKB (human) (UniProt O14920)
[35] = molecular target: FES (human) (UniProt P07332)
[36] = molecular target: PTK6 (human) (UniProt Q13882)
[37] = molecular target: ADRBK1 (human) (UniProt P25098)
[38] = molecular target: PRKACG (human) (UniProt P22612)
[39] = molecular target: STK16 (human) (UniProt O75716)
[40] = molecular target: IKBKE (human) (UniProt Q14164)
Chain of IKBKE (human) (Q14164 whole entry, looked up): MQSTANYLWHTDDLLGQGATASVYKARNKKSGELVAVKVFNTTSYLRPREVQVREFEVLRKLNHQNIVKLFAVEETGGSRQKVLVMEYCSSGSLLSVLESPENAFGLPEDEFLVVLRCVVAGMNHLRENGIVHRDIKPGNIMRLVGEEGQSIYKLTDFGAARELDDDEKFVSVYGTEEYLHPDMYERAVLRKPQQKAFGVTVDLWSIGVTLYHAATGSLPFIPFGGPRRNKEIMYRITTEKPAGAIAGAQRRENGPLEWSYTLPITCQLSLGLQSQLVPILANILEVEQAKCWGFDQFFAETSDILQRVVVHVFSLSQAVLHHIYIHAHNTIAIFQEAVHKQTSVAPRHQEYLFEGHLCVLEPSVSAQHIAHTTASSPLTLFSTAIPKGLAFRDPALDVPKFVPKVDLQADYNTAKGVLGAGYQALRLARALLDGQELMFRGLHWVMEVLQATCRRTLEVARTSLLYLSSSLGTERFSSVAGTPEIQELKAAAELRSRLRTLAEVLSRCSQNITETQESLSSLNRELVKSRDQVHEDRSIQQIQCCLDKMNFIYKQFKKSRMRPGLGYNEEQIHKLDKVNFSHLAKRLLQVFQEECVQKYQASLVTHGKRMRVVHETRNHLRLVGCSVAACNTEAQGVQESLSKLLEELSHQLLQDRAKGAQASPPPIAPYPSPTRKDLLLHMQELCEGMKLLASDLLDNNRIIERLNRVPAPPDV

[41] = molecular target: CDK1 CCNB1 (human) (UniProt P06493+P14635)

SMILES: CCN(CC)CCNC(=O)c1c(C)[nH]c(/C=C2\C(=O)Nc3ccc(Cl)cc32)c1C
residual activity [1]: 34.4%
residual activity [2]: 82.7%
residual activity [3]: 89.7%
residual activity [4]: 99.3%
residual activity [5]: 82.8%
residual activity [6]: 104%
residual activity [7]: 67.1%
residual activity [8]: 74.7%
residual activity [9]: 91.2%
residual activity [10]: 21.6%
residual activity [11]: 47.7%
residual activity [12]: 61.7%
residual activity [13]: 98.1%
residual activity [14]: 93.1%
residual activity [15]: 10%
residual activity [16]: 75.9%
residual activity [17]: 64.3%
residual activity [18]: 89.8%
residual activity [19]: 103%
residual activity [20]: 28.4%
residual activity [21]: 5.29%
residual activity [22]: 3.19%
residual activity [23]: 76.7%
residual activity [24]: 88.3%
residual activity [25]: 20.6%
residual activity [26]: 109%
residual activity [27]: 73.2%
residual activity [28]: 0.782%
residual activity [29]: 108%
residual activity [30]: 103%
residual activity [31]: 90.4%
residual activity [32]: 1.44%
residual activity [33]: 30.6%
residual activity [34]: 101%
residual activity [35]: 22.1%
residual activity [36]: 51.3%
residual activity [37]: 104%
residual activity [38]: 101%
residual activity [39]: 72.9%
residual activity [40]: 29.4%
residual activity [41]: 109%

SMILES: N#C/C(=C(/N)Sc1ccc(N)cc1)c1ccccc1C(F)(F)F
residual activity [1]: 85.4%
residual activity [2]: 96.6%
residual activity [3]: 104%
residual activity [4]: 99.7%
residual activity [5]: 88.1%
residual activity [6]: 102%
residual activity [7]: 105%
residual activity [8]: 97.5%
residual activity [9]: 102%
residual activity [10]: 106%
residual activity [11]: 104%
residual activity [12]: 100%
residual activity [13]: 93.1%
residual activity [14]: 102%
residual activity [15]: 100%
residual activity [16]: 91.6%
residual activity [17]: 86%
residual activity [18]: 96.9%
residual activity [19]: 101%
residual activity [20]: 97.1%
residual activity [21]: 111%
residual activity [22]: 95.8%
residual activity [23]: 99.4%
residual activity [24]: 110%
residual activity [25]: 92.2%
residual activity [26]: 95%
residual activity [27]: 97.2%
residual activity [28]: 107%
residual activity [29]: 101%
residual activity [30]: 103%
residual activity [31]: 116%
residual activity [32]: 100%
residual activity [33]: 97.7%
residual activity [34]: 100%
residual activity [35]: 98%
residual activity [36]: 97.6%
residual activity [37]: 114%
residual activity [38]: 101%
residual activity [39]: 98.4%
residual activity [40]: 102%
residual activity [41]: 105%

residual activity [1]: 74.7%
residual activity [2]: 101%
residual activity [3]: 84%
residual activity [4]: 97.3%
residual activity [5]: 74%
residual activity [6]: 105%
residual activity [7]: 85.8%
residual activity [8]: 37.9%
residual activity [9]: 94.4%
residual activity [10]: 55.3%
residual activity [11]: 106%
residual activity [12]: 103%
residual activity [13]: 94%
residual activity [14]: 96.1%
residual activity [15]: 73.8%
residual activity [16]: 95.8%
residual activity [17]: 84.6%
residual activity [18]: 95%
residual activity [19]: 102%
residual activity [20]: 67.1%
residual activity [21]: 27%
residual activity [22]: 45.2%
residual activity [23]: 101%
residual activity [24]: 98.4%
residual activity [25]: 67.9%
residual activity [26]: 91.9%
residual activity [27]: 63.5%
residual activity [28]: 26.5%
residual activity [29]: 96.8%
residual activity [30]: 104%
residual activity [31]: 96.4%
residual activity [32]: 6.63%
residual activity [33]: 63.6%
residual activity [34]: 107%
residual activity [35]: 96%
residual activity [36]: 91.3%
residual activity [37]: 105%
residual activity [38]: 111%
residual activity [39]: 95.4%
residual activity [40]: 74.2%
residual activity [41]: 101%
SMILES: Cc1[nH]c(/C=C2\C(=O)Nc3ccc(S(=O)(=O)N(C)c4cccc(Cl)c4)cc32)c(C)c1C(=O)N1CCN(C)CC1

SMILES: COc1cc2ncnc(Nc3cccc(Cl)c3)c2cc1OC
residual activity [1]: 74.4%
residual activity [2]: 84.6%
residual activity [3]: 95.9%
residual activity [4]: 88.6%
residual activity [5]: 101%
residual activity [6]: 99.2%
residual activity [7]: 65%
residual activity [8]: 85.8%
residual activity [9]: 102%
residual activity [10]: 77.3%
residual activity [11]: 108%
residual activity [12]: 64.4%
residual activity [13]: 103%
residual activity [14]: 98.7%
residual activity [15]: 90.1%
residual activity [16]: 99.2%
residual activity [17]: 92.3%
residual activity [18]: 92.3%
residual activity [19]: 98%
residual activity [20]: 85.7%
residual activity [21]: 59.9%
residual activity [22]: 88.9%
residual activity [23]: 76.5%
residual activity [24]: 104%
residual activity [25]: 88.3%
residual activity [26]: 96%
residual activity [27]: 108%
residual activity [28]: 37.6%
residual activity [29]: 108%
residual activity [30]: 98%
residual activity [31]: 68.3%
residual activity [32]: 60.9%
residual activity [33]: 88.3%
residual activity [34]: 102%
residual activity [35]: 104%
residual activity [36]: 39%
residual activity [37]: 96.6%
residual activity [38]: 87.9%
residual activity [39]: 101%
residual activity [40]: 101%
residual activity [41]: 90.3%

SMILES: O=C1NC(=O)/C(=C/c2ccc3c(c2)OC(F)(F)O3)S1
residual activity [1]: 81.5%
residual activity [2]: 98.6%
residual activity [3]: 93.7%
residual activity [4]: 99.6%
residual activity [5]: 91.2%
residual activity [6]: 90.1%
residual activity [7]: 98.7%
residual activity [8]: 98.1%
residual activity [9]: 99.2%
residual activity [10]: 109%
residual activity [11]: 120%
residual activity [12]: 99.4%
residual activity [13]: 97.7%
residual activity [14]: 92.3%
residual activity [15]: 96.6%
residual activity [16]: 89.9%
residual activity [17]: 29.9%
residual activity [18]: 92.4%
residual activity [19]: 99.4%
residual activity [20]: 96%
residual activity [21]: 87.9%
residual activity [22]: 94.2%
residual activity [23]: 90%
residual activity [24]: 88.1%
residual activity [25]: 90.8%
residual activity [26]: 96.3%
residual activity [27]: 86.8%
residual activity [28]: 92.9%
residual activity [29]: 97.4%
residual activity [30]: 94.4%
residual activity [31]: 100%
residual activity [32]: 103%
residual activity [33]: 103%
residual activity [34]: 96.1%
residual activity [35]: 98.3%
residual activity [36]: 94.8%
residual activity [37]: 103%
residual activity [38]: 102%
residual activity [39]: 91%
residual activity [40]: 101%
residual activity [41]: 99.6%
